Data published in patent publication US11633506B2, “Using targeted radiotherapy (TRT) to drive anti-tumor immune response to immunotherapies” (Wisconsin Alumni Research Foundation, priority 2016, dated 2023).
“Also recorded” adds a separate entry of the source.

What was measured:
[1] = system: in vivo cancer and cancer stem cell models; details: regardless of anatomic location; cited from earlier work
[2] = system: B78 melanoma; experiment: ^124I-NM404 PET/CT imaging; type: in vivo, mouse; details: IV; ~200 mm^3 B78 tumor; image at 71 h
Excerpt: FIG. 5 is an image showing selective uptake of ^124I-NM404 by B78 melanoma. A mouse bearing a ˜200 mm^3 B78 tumor received IV ^124I-NM404 and had serial PET/CT scans done.
^131I-NM404 has shown selective uptake in vitro in >95% of tumor lines (human and mouse), with poor uptake by non-malignant cells, and with similar tumor specificity seen in vivo. This includes selective uptake in vivo with the B78 tumor (FIG. 5). In our preliminary dosimetry study, we gave ^124I-NM404 to C57BL/6 mice and characterized the time course of TRT exposure by serial PET/CT imaging (as in FIG. 5). […] After those four weeks, the remaining TRT dose to the B78 tumor would be less than 0.25 Gy. We will replicate the data we obtained in our 2-tumor model using xRT (FIG. 3), but use the lowest possible dose of targeted ^131I-NM404 TRT to enable effective elimination of tumor-induced tolerance at all sites of distant disease. However, unlike xRT, which delivers all dose in minutes and is then done, TRT deposits dose over time, depending upon both the biological and physical half-life of the targeted isotope (8 day t½ for ^131I). We want an initial TRT effect at the distant tumor sites to eradicate immune tolerance; however we want the immunosuppressive TRT effect to then be minimal when we give the IT-IC to induce ADCC and the in situ vaccine anti-tumor effects. […]

[3] = system: B78 tumor tissue; experiment: RT-PCR gene expression of immune signatures in tumor tissue after TRT; type: in vivo, mice; details: TRT alone; pretreatment and 8 d intervals
Protocol: Finally, to characterizing the immunological effects of TRT on the immune cells within tumors, we have treated B78 bearing mice with ^131I-NM404 and collected tumor tissue at pretreatment and at half-life (8 d) intervals thereafter. These tissues were then analyzed by RT-PCR for gene expression of a panel of immune signatures.

[4] = system: radiosensitive lymphoma tumor; experiment: ^131I-NM404 in mice bearing a radiosensitive lymphoma tumor; type: in vivo; details: ~2 Gy equivalent dose
Excerpt: (§1) In order to then determine if a ˜2 Gy equivalent dose of ^131I-NM404 would have the desired effects against intratumor lymphoid cells (particularly Tregs), 2 separate approaches have been pursued.

[5] = system: tumor lines (human and mouse); experiment: selective uptake in vitro in tumor lines; type: cell-based; details: poor uptake by non-malignant cells
Excerpt: (§2) ^131I-NM404 has shown selective uptake in vitro in >95% of tumor lines (human and mouse), with poor uptake by non-malignant cells, and with similar tumor specificity seen in vivo. This includes selective uptake in vivo with the B78 tumor (FIG. 5). In our preliminary dosimetry study, we gave ^124I-NM404 to C57BL/6 mice and characterized the time course of TRT exposure by serial PET/CT imaging (as in FIG. 5). […] After those four weeks, the remaining TRT dose to the B78 tumor would be less than 0.25 Gy. We will replicate the data we obtained in our 2-tumor model using xRT (FIG. 3), but use the lowest possible dose of targeted ^131I-NM404 TRT to enable effective elimination of tumor-induced tolerance at all sites of distant disease. However, unlike xRT, which delivers all dose in minutes and is then done, TRT deposits dose over time, depending upon both the biological and physical half-life of the targeted isotope (8 day t½ for ^131I). We want an initial TRT effect at the distant tumor sites to eradicate immune tolerance; however we want the immunosuppressive TRT effect to then be minimal when we give the IT-IC to induce ADCC and the in situ vaccine anti-tumor effects. This is essential to allow full tumor destruction at all sites.

[6] = system: two B78 tumors; experiment: ^131I-NM404 + xRT + IT-IC in mice bearing two B78 tumors; type: in vivo, C57BL/6 mice; details: 60 μCi day 1, 12 Gy xRT to primary day 8, IT-IC days 13-17
Excerpt: Using the data summarized in Examples 7 and 8, a study was done in mice bearing 2 separate B78 tumors. Mice received the estimated required systemic ^131I-NM404 dose followed by xRT and local immunotherapy to the in situ vaccine site. […] Further testing, and modification of some of the experimental variables, is underway in order to try to maximize the desired effect of blocking CIT without suppressing the in situ vaccine effect. More details regarding these experiments are disclosed in Example 10 below.
Given the capacity of low dose ^131I-NM404 TRT to deplete tumor-infiltrating Tregs without rendering a mouse leukopenic, we tested whether low dose ^131I-NM404 might effectively overcome concomitant immune tolerance. C57BL/6 mice bearing two B78 tumors were treated with 60-μCi ^131I-NM404 on day 1 (NM404), as indicated. After one half-life (day 8), animals received 12 Gy xRT or no xRT to the primary tumor (in situ vaccine site). Control mice receiving no ^131I-NM404 were treated to the secondary tumor as indicated (0, 2, or 12 Gy). Mice received daily IT injections of IC to the primary tumor (in situ vaccine site), as indicated, on days 13-17.

[7] = system: B78 tumors; experiment: low dose ^131I-NM404 TRT: blood counts and tumor infiltrating T cells; type: in vivo, C57BL/6 mice
Excerpt: as §1
A second approach involved treating mice with B78 tumors with these same doses of ^131I-NM404. […] This observation again supports our hypothesis that it will be feasible to use TRT to overcome Treg-mediated CIT in order to rescue an in situ vaccine effect in animals bearing multiple tumors.
In most clinical scenarios, it is not feasible to deliver external beam, even low dose, to all tumor sites without eliciting marked bone marrow depletion and leukopenia that would result in immunosuppression. Here we tested whether TRT could be administered systemically to specifically deplete tumor infiltrating suppressive immune cells (Tregs), without triggering systemic immune cell depletion and leukopenia. Dosimetry studies in this B78 melanoma tumor model were performed using positron-emitting ^124I-NM404 confirm tumor-selective uptake of NM404 (FIG. 12A). C57BL/6 mice bearing B78 tumors were treated with 60 μCi ^131I-NM404. This activity approximates the amount of ^131I-NM404 necessary to deliver ˜2 Gy TRT to a B78 tumor. Peripheral blood and tumor samples were collected in untreated control mice (C) and at 8 day intervals (T1=d8, T2=d16, T3=d24, T4=d32) thereafter.

[8] = system: B78 tumor; experiment: ^131I-NM404 with xRT+IT-IC, single B78 tumor; type: in vivo, mice
Excerpt: (§3) Using the dosimetry calculations from our preliminary data, we estimated that a dose of 3 μCi of ^131I-NM404, should deliver an equivalent of ˜0.2 Gy to the tumor site, a dose that we hypothesized should not be immunosuppressive and should not prevent lymphocyte-mediated tumor destruction. As noted above, this is the dose we estimated would remain yet to be delivered 28 days after an initial ^131I-NM404 dose of 60 μCi. We thus evaluated groups of mice bearing a single 200 mm^3 B78 tumor. On day 0, all mice got 12 Gy xRT to their tumor, and on days 6-10, all got 50 mcg/d of IT-IC. One group also got 3 μCi of ^131I-NM404 on d-0 (˜0.2 Gy). […] We thus hypothesize that if we use an initial dose of 60 μCi of ^131I-NM404 TRT on day-22, it would effectively block the tolerogenic effect of distant tumors, yet enable xRT on day 0 and IT-IC on days 6-10 (28 d after the TRT) to the first tumor to function as an in situ vaccine, inducing an adaptive response that then eradicates all tumors.
Using the data summarized in Examples 7 and 8, a study was done in mice bearing 2 separate B78 tumors. Mice received the estimated required systemic ^131I-NM404 dose followed by xRT and local immunotherapy to the in situ vaccine site. […]

[9] = system: B78 tumor; experiment: Monte Carlo dosimetry from serial ^124I-NM404 PET/CT; type: in vivo, C57BL/6 mice
Excerpt: as §2, §3
Based on the preliminary data described above in Examples 1-4, studies have been done to move these concepts into in vivo testing using TRT. […] This was done in order to estimate the amount of ^131I-NM404 that would be needed to approximate ˜2 Gy of xRT.
In most clinical scenarios, it is not feasible to deliver external beam, even low dose, to all tumor sites without eliciting marked bone marrow depletion and leukopenia that would result in immunosuppression. […]

[10] = system: Tregs; experiment: Treg depletion by diphtheria toxin in DEREG mice with primary and secondary B78 tumors treated with xRT+IT-IC; type: in vivo; details: IP diphtheria toxin vs PBS, with xRT+IT-IC to primary tumor
[11] = 3 and 4 half-life time points, vs untreated baseline and 2nd half-life

For `C[N+](C)(C)CCOP(=O)([O-])OCCCCCCCCCCCCCCCCCCc1ccc(I)cc1` [NM404, 18-(p-iodophenyl)octadecyl phosphocholine], the “tumor uptake / targeting across in vivo models” value [1] is given as “near universal tumor uptake in all but three of over 70 in vivo models”.
With `C[N+](C)(C)CCOP(=O)([O-])OCCCCCCCCCCCCCCCCCCc1ccc([124I])cc1` [^124I-NM404] the “tumor uptake on PET/CT” value [2] was “Excellent tumor uptake; also recorded: selective uptake by the tumor with some residual background uptake by the heart and liver”.
With `C[N+](C)(C)CCOP(=O)([O-])OCCCCCCCCCCCCCCCCCCc1ccc([131I])cc1` [^131I-NM404] the “gene expression of immune signatures” value [3] was “striking changes in expression of tumor cell markers of immunsusceptibility and in genes normally expressed only by immune cells”, the lymphoid tumor response [4] was “potent lymphoid tumor shrinkage/dose-dependent inhibition” and the “tumor lines with selective uptake in vitro” value [5] was over 95%. For the same compound, the “concomitant immune tolerance (CIT) / primary and secondary tumor response” value [6] was “did appear to attenuate CIT; also recorded: effectively overcomes concomitant immune tolerance and rescues the systemic anti-tumor effect of in situ vaccination”, the “intratumor effector CD8+ T cells” value ([7]; 2 half-life time point) was “decrease in intratumor effector CD8+ T cells” and the “intratumor FoxP3+ Tregs” value ([7]; 2 half-lifes after TRT) was “decrease in intratumor FoxP3+ Tregs”. The “intratumor CD8+ effector T cells” value [7, 11] was “increase in intratumor CD8+ effector T cells”, the “intratumor Tregs” value [7, 11] was “further decline in the levels of intratumor Tregs” and the “level of tumor infiltrating CD8+ effector T cells” value ([7]; 60 μCi, d8-d32) was “did not significantly affect the level of tumor infiltrating CD8+ effector T cells”. For the same compound, the “tumor infiltrating FoxP3+ Tregs” value ([7]; 60 μCi, d8-d32) was “significantly depleted”, the systemic leukopenia ([7]; 60 μCi, peripheral blood d8-d32) was “did not result in any significant systemic leukopenia” and the “circulating lymphoid cells (peripheral complete blood counts)” value ([7]; ~2 Gy equivalent dose) was “did not cause either substantial shrinkage/slowing of the B78 tumor or any evident depletion of circulating lymphoid cells”. The B78 tumor growth ([7]; ~2 Gy equivalent dose, TRT alone) was “did not cause either substantial shrinkage/slowing of the B78 tumor”, the “systemic lymphopenia (peripheral complete blood count)” value ([7]; ~2 Gy equivalent dose, half-life (8 d) intervals) was “no systemic lymphopenia at any time point” and the “tumor uptake / targeting across in vivo models” value [1] was “nearly universal tumor targeting properties in over 60 in vivo cancer and cancer stem cell models”. The “tumor eradication by xRT+IT-IC with vs without TRT” value ([8]; 3 μCi on d-0 (~0.2 Gy), 12 Gy xRT day 0, IT-IC days 6-10) was “same degree of tumor eradication; also recorded: equally effective”, the “local in situ vaccine effect” value ([8]; estimated required systemic TRT dose, mice with one tumor) was “did not appear to interfere with the local in situ vaccine effect” and the “dose delivered to the tumor site” value ([9]; 3 μCi) was about 0.2 Gy. The “remaining TRT dose to the B78 tumor” value ([9]; after four weeks, initial 60 μCi) was “less than 0.25 Gy”, the “activity necessary to deliver ~2 Gy TRT to a B78 tumor” value ([9]; mouse, in vivo) was about 60 μCi and the “activity needed to deliver ~3 Gy to an established B78 tumor” value ([9]; over a four week period of decay) was about 60 μCi.
For diphtheria toxin, the “primary and secondary tumor response” value [10] was “improved primary (FIG. 9B) and secondary (FIG. 9C) tumor response”.
